Like-named read-outs stand apart in the source and are kept apart here.
Columns and labels:
HNL30 = test system: T1, HNL30; assay: benzaldehyde formation at […] nm; assay type: biochemical, synthetic construct; settings: 100 mM citrate pH 5.5, 30 °C
T1 construct: pET28b (NdeI/XhoI), E. coli BL21(DE3), Ni-Sepharose and gel filtration

HNL54 = test system: T2, HNL54; assay: benzaldehyde formation at […] nm; assay type: biochemical, synthetic construct; settings: 100 mM citrate pH 5.5, 30 °C
T2 construct: synthetic gene in pET28b (NdeI/XhoI), E. coli BL21(DE3), Ni-Sepharose and gel filtration

Row | Compound | Km (HNL30; read-out: Km /) [µM] | Km (HNL54; read-out: Km /) [µM] | Km (HNL30; read-out: HNL30 / Km) [µM] | Km (HNL54; read-out: HNL54 / Km) [µM]
1 | N#CC(O)c1ccccc1 (racemic) [rac-Man] | 800 ± 100 | 3200 ± 300 |  | 
2 | N#C[C@H](O)c1ccccc1 [(R)-Man] |  |  | 5000 | 370
3 | N#C[C@@H](O)c1ccccc1 [(S)-Man] |  |  | 400 | 610
